According to the NIST ThermoML archive (doi:10.1021/acs.jced.8b01202):
Several values for one entry are separate records, joined by “and”; a condition that tells them apart may be missing. Equal entries are not always repeated. Numbers after ± are expanded uncertainties.

Experiments:
[1] = refractive index (Na D-line) (dimensionless); wn = mass fraction of the nth substance listed; details: 298.2 K, 81.5 kPa, Liquid, Standard Abbe refractometry
[2] = refractive index (Na D-line) (dimensionless); details: 298.2 K; 101.33 kPa; Liquid; Standard Abbe refractometry
[3] = 298.2 K; 101.33 kPa; Liquid; Vibrating tube method

refractive index ([1]; w2 = 0.0006) | refractive index ([1]; w2 = 0.0008) | refractive index ([1]; w2 = 0.0009) | refractive index ([1]; w2 = 0.001) | refractive index ([1]; w2 = 0.0016) | refractive index ([1]; w2 = 0.9996) | refractive index [2] | mass density [3] [kg/m3] | Compound
1.48845 ± 0.0014 | 1.48875 ± 0.0014 and 1.48855 ± 0.0014 | 1.49001 ± 0.0014 | 1.4885 ± 0.0014 | 1.48855 ± 0.0014 | 1.333 ± 0.0014 |  |  | CC(C)c1ccccc1 [isopropylbenzene] + O
 |  |  |  |  |  | 1.3325 ± 0.0014 |  | O [water]
 |  |  |  |  |  | 1.49005 ± 0.0014 | 857.54 ± 1.7 | CC(C)c1ccccc1 [isopropylbenzene]
